One series has as its system L-02 normal liver cell. The experiment in a line: MTT cell growth inhibition assay, L-02 (normal). It is filed as cell-based, human. The conditions noted are these: 48 h incubation, L-02 normal cells. An excerpt:
(§1) All human cell lines were used in this study. MGC-803 late-stage differentiation gastric cancer cell, A549 lung cancer cell, HepG2 hepatoma cell, AGS gastric cancer cell, BEL-7402 liver cancer cell, HCT-116 colorectal cancer cell, HeLa cervical cancer cell, SGC-7901 early differentiation gastric cancer cell, L-02 normal liver cell, MCF-7 breast cancer cell, and MCF-10A normal breast cell were initially purchased from American Type Culture Collection (ATCC, Manassas, VA, USA). RPMI-1640 media, Dulbecco’s modified Eagle’s medium (DMEM), and foetal bovine serum (FBS) were provided from Gibco Company (Grand Island, NY, USA). The cells were maintained in DMEM or RPMI-1640, supplemented with 10% FBS, 100 IU/mL penicillin and […] (Grand Island, NY, USA), and at 37 °C in a humidified atmosphere containing 5% CO2.
(§2) Cells were plated in 96-well plates at a density of 30–40% to ensure exponential growth throughout the experimental period, and then allowed to adhere for 1 day[21]. Next, the cells were treated with four serial concentrations (1, 10, 50, and 100 µM) of each compound. Taxol, CA-4, and CA-4P (phosphorylated form of CA-4) were used as positive controls. After 48 h incubation, MTT solution was added to each well at a final concentration of 2 mg/mL, and incubated for an additional 4 h. Next, the MTT solution was removed and 150 µL of dimethyl sulphoxide (DMSO)/well was added (Sigma-Aldrich, St Louis, MO, USA). The plates were shaken vigorously at RT to ensure complete solubilisation, and absorption at 492 nm was determined.
(§3) According to standard protocol, preliminary in vitro anti-proliferative activities of the synthesised compounds were evaluated by MTT assay, using nine human cancer cell lines (MGC-803, A549, HepG2, AGS, BEL-7402, HCT116, HeLa, SGC-7901, and MCF-7) and two normal human cell lines (L-02 and MCF-10A), and compared with those of CA-4, CA-4P, and taxol.

The subject of a further series is MCF-7 breast cancer cell. In words: MTT cell growth inhibition assay, MCF-7. It counts as cell-based, human. The conditions noted are these: MTT, 48 h incubation, MCF-7.
Text: as §1, §2, §3

Series [1] relates to HeLa cervical cancer cell. In words: MTT cell growth inhibition assay, HeLa. The conditions noted are these: 48 h incubation. It counts as cell-based, human.
Text: as §1, §2, §3

A further series concerns HepG2 hepatoma cell. In words: MTT cell growth inhibition assay, HepG-2. It is filed as cell-based, human. Conditions: MTT, 48 h incubation, HepG-2.
Text: as §1, §2, §3

The subject of series [2] is SGC-7901 early differentiation gastric cancer cell. In words: MTT cell growth inhibition assay, SGC-7901. It is filed as cell-based, human. The conditions noted are these: 48 h incubation.
Text: as §1, §2, §3

Another series relates to MGC-803 cells. The experiment in a line: MTT cell growth inhibition assay, MGC-803. The conditions noted are these: MTT, 48 h incubation, MGC-803. It counts as cell-based, human.
Text: as §1, §2, §3

For a further series, the system named is BEL-7402 cells. In words: MTT cell growth inhibition assay, BEL-7402. It counts as cell-based, human. Conditions: for IC50: MTT, 48 h incubation, Bel-7402; for SI IC50 (L-02/BEL-7402): selectivity index, IC50 (L-02)/IC50 (BEL-7402).
Text: as §1, §2, §3

The test system of a further series is HCT116 cells. In words: MTT cell growth inhibition assay, HCT116. It counts as cell-based, human. Conditions: for IC50: MTT, 48 h incubation, HCT116; for SI IC50 (L-02/HCT116): selectivity index, IC50 (L-02)/IC50 (HCT116).
Text: as §1, §2, §3

The next series has as its system AGS cells. The experiment in a line: MTT cell growth inhibition assay, AGS. It counts as cell-based, human. Conditions: for IC50: MTT, 48 h incubation, AGS.
Text: as §1, §2, §3

The next series has as its system A549 lung cancer cell. The experiment in a line: MTT cell growth inhibition assay, A549. It counts as cell-based, human. The conditions noted are these: MTT, 48 h incubation, A549.
Text: as §1, §2, §3

The subject of series [3] is MCF-10A normal breast cell. In words: MTT cell growth inhibition assay, MCF-10A (normal). It is filed as cell-based, human. The conditions noted are these: 48 h incubation, MCF-10A normal cells.
Text: as §1, §2, §3

In general, IC50 refers to the concentration that gives 50% inhibition. A higher IC50 goes with weaker potency in that assay. As usually defined, the melting point is the temperature, or range, at which the solid turns liquid.

`COc1ccc(/C=C(\C#N)c2cc(OC)c(OC)c(OC)c2)cc1` [Compound 6d, (Z)-3-(4-Methoxyphenyl)-2-(3,4,5-trimethoxyphenyl)acrylonitrile] came in with a melting point of 156 to 158 °C. In the series on L-02 normal liver cell (Homo sapiens), half-maximal inhibition (IC50) required 4.15 ± 4.16 µM. In the series with MCF-7 breast cancer cell (Homo sapiens, MCF7), this compound gave an IC50 of 16.7 ± 4.77 µM. The same compound displayed an IC50 in series [1] (Homo sapiens) of more than 100 µM. Further, the IC50 with HepG2 hepatoma cell (Homo sapiens, HepG2) is more than 100 µM. In addition, the half-inhibitory concentration (IC50) in series [2] (Homo sapiens) was more than 100 µM. This compound also showed an IC50 in the series with MGC-803 cells (Homo sapiens, MGC-803, 48 h) of 6.18 ± 0.36 µM. This compound also displayed a concentration for half-maximal inhibition (IC50) in the series on BEL-7402 cells (Homo sapiens) of 0.75 ± 0.21 µM. The “SI IC50 (L-02/BEL-7402)” value with BEL-7402 cells is more than 5.5. Inhibition in the series on HCT116 cells (Homo sapiens, HCT-116) was half-maximal at 1.51 ± 0.05 µM (IC50). For the same compound, in the series on HCT116 cells, the “SI IC50 (L-02/HCT116)” value is reported as more than 2.7. This compound displayed a concentration for half-maximal inhibition (IC50) in the series with AGS cells (Homo sapiens) of 0.05 ± 0.003 µM. The IC50 in the series on A549 lung cancer cell (Homo sapiens) is more than 100 µM. 3.07 ± 0.18 µM corresponded to half-maximal inhibition in [3] (Homo sapiens) (IC50).

`CCc1ccc(/C=C(\C#N)c2cc(OC)c(OC)c(OC)c2)cc1` [Compound 6g, (Z)-3-(4-Ethylphenyl)-2-(3,4,5-trimethoxyphenyl)acrylonitrile] had a melting point of 76 to 78 °C. In the series on L-02 normal liver cell (Homo sapiens), this compound gave an IC50 of more than 100 µM. In the series with MCF-7 breast cancer cell (Homo sapiens, MCF7), this compound had an IC50 of more than 100 µM. Also, in series [1] (Homo sapiens), the half-maximal inhibitory concentration (IC50) is more than 100 µM. Besides, the IC50 with HepG2 hepatoma cell (Homo sapiens, HepG2) is more than 100 µM. This compound also gave a 50% inhibitory concentration (IC50) in series [2] (Homo sapiens) of more than 100 µM. Further, the IC50 with MGC-803 cells (Homo sapiens, MGC-803, 48 h) was in the range of 0.01 to 7.21 µM. Further, in the series with MGC-803 cells, the 50% inhibitory concentration (IC50) is less than 0.01 µM. The compound also yielded a 50% inhibitory concentration (IC50) in the series on BEL-7402 cells (Homo sapiens) of 0.65 ± 0.05 µM. The “SI IC50 (L-02/BEL-7402)” value in the series on BEL-7402 cells is more than 153.8. Further, inhibition with HCT116 cells (Homo sapiens, HCT-116) was half-maximal at 0.34 ± 0.01 µM (IC50). The “SI IC50 (L-02/HCT116)” value in the series with HCT116 cells is reported as more than 294.1. Besides, in the series on AGS cells (Homo sapiens), the IC50 was determined as 4.38 ± 2.04 µM. The “SI IC50 (L-02/AGS)” value in the series with AGS cells (selectivity index, IC50 (L-02)/IC50 (AGS)) is given as more than 22.8. Moreover, the half-inhibitory concentration (IC50) with A549 lung cancer cell (Homo sapiens) is more than 100 µM. Moreover, the IC50 in series [3] (Homo sapiens) came to 1.19 ± 0.08 µM.

For the compound `Cc1ccc(/C(C#N)=C/c2ccccc2)cc1` [Compound 13d, (Z)-3-Phenyl-2-(p-tolyl)acrylonitrile], the melting point lay within 145 to 147 °C. The compound also displayed an IC50 with L-02 normal liver cell (Homo sapiens) of more than 100 µM. The 50% inhibitory concentration (IC50) in the series with MCF-7 breast cancer cell (Homo sapiens, MCF7) is more than 100 µM. The compound also registered a half-maximal inhibitory concentration (IC50) in series [1] (Homo sapiens) of more than 100 µM. This compound registered an IC50 in the series with HepG2 hepatoma cell (Homo sapiens, HepG2) of more than 100 µM. This compound came in with an IC50 in series [2] (Homo sapiens) of more than 100 µM. Also, the IC50 with MGC-803 cells (Homo sapiens, MGC-803, 48 h) came out at 89.2 ± 3.2 µM. For the same compound, in the series on BEL-7402 cells (Homo sapiens), the IC50 was more than 100 µM. The compound also returned a half-maximal inhibitory concentration (IC50) in the series on HCT116 cells (Homo sapiens, HCT-116) of more than 100 µM. This compound also yielded a half-inhibitory concentration (IC50) with AGS cells (Homo sapiens) of more than 100 µM. In addition, the half-maximal inhibitory concentration (IC50) in the series on A549 lung cancer cell (Homo sapiens) is more than 100 µM. The compound further displayed an IC50 in series [3] (Homo sapiens) of more than 100 µM.

Compound `Cc1ccc(/C(C#N)=C/c2cccs2)cc1` [Compound 14a, (Z)-3-(Thiophen-2-yl)-2-(p-tolyl)acrylonitrile] came in with a melting point of 128 to 130 °C. Further, in the series on L-02 normal liver cell (Homo sapiens), the IC50 was more than 100 µM. In the series with MCF-7 breast cancer cell (Homo sapiens, MCF7), the IC50 was more than 100 µM. The compound also yielded a 50% inhibitory concentration (IC50) in [1] (Homo sapiens) of more than 100 µM. Besides, the IC50 in the series on HepG2 hepatoma cell (Homo sapiens, HepG2) was more than 100 µM. In addition, the concentration for half-maximal inhibition (IC50) in series [2] (Homo sapiens) is more than 100 µM. Further, the IC50 with MGC-803 cells (Homo sapiens, MGC-803, 48 h) is more than 100 µM. This compound also returned an IC50 in the series with BEL-7402 cells (Homo sapiens) of more than 100 µM. In the series on HCT116 cells (Homo sapiens, HCT-116), the concentration for half-maximal inhibition (IC50) is more than 100 µM. This compound also came in with an IC50 in the series with AGS cells (Homo sapiens) of more than 100 µM. Also, the 50% inhibitory concentration (IC50) in the series with A549 lung cancer cell (Homo sapiens) was more than 100 µM. In addition, the half-maximal inhibitory concentration (IC50) in [3] (Homo sapiens) is more than 100 µM.

Turning to “(Z)-3-(Naphthalen-1-yl)-2-(3,4,5-trimethoxyphenyl)acrylonitrile [Compound 7c]”, the 50% inhibitory concentration (IC50) with L-02 normal liver cell was 8.21 ± 0.051 µM; in the series with MCF-7 breast cancer cell, 2.83 ± 0.35 µM; in [1], more than 100 µM; with HepG2 hepatoma cell, more than 100 µM; in series [2], more than 100 µM; in the series with MGC-803 cells, 3.45 ± 2.11 µM. In addition, the 50% inhibitory concentration (IC50) in the series on BEL-7402 cells is 2.53 ± 0.12 µM; in the series with HCT116 cells it was 4.58 ± 0.42 µM; in the series on AGS cells, 3.51 ± 0.25 µM; with A549 lung cancer cell, more than 100 µM; in [3], 1.03 ± 0.44 µM.

The values above are taken from PMC6161602, “Synthesis and characterisation of (Z)-styrylbenzene derivatives as potential selective anticancer agents” (Journal of Enzyme Inhibition and Medicinal Chemistry, 2018).
